Measurements: ChEMBL document CHEMBL4665900, “Novel Pyrido-pyrimidinones and Pteridinones as Endoribonuclease Inositol Requiring Enzyme 1 (IRE1α) Inhibitors for Treating Cancer” (ACS Med Chem Lett, 2020)

The compounds below were run against Serine/threonine-protein kinase/endoribonuclease IRE1 (Homo sapiens, UniProt O75460) (assay: Inhibition of human His-tagged IRE1alpha expressed in Sf9 insect cells preincubated for 1 hr followed by Alexa fluor 647-labeled probe addition and measured after 1 hr by TR-FRET assay).
Serine/threonine-protein kinase/endoribonuclease IRE1, sequence (O75460 whole entry): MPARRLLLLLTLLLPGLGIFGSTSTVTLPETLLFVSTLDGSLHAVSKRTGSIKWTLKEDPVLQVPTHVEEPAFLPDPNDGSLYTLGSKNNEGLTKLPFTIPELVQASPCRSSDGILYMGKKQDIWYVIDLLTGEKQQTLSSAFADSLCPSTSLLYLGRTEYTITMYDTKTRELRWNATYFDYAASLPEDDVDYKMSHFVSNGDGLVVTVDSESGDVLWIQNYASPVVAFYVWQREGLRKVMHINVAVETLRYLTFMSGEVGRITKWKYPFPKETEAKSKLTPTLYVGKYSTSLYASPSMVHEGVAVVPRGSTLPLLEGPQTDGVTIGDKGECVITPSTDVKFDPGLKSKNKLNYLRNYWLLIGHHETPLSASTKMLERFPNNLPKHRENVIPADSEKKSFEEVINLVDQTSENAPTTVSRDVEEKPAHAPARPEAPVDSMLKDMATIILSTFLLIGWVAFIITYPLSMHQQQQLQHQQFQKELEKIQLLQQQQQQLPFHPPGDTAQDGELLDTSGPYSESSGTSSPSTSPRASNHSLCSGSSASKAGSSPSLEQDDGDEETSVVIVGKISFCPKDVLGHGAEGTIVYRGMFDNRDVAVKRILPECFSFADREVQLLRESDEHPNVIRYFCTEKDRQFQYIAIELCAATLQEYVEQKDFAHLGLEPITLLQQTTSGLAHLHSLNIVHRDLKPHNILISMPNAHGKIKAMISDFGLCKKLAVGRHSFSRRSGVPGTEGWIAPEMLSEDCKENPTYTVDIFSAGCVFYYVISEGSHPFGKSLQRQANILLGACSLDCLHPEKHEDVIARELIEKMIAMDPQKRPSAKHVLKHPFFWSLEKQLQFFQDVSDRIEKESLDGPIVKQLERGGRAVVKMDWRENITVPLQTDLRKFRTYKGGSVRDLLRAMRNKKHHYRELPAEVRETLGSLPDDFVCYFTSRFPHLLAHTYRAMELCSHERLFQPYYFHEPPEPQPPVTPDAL

In order of rising IC50:
1. COCCN(C)[C@H]1CC[C@H](Nc2ncc3cc(-c4ccc(NS(=O)(=O)Cc5ccc(F)cc5)c(F)c4)c(=O)n(C(C)C)c3n2)CC1  0.05 nM
2. CC(C)n1c(=O)c(-c2c(F)cc(NS(=O)(=O)Cc3ccc(F)cc3)cc2F)cc2cnc(N[C@H]3CC[C@H](N(C)C)CC3)nc21  0.08 nM
3. Cc1ccc(CS(=O)(=O)Nc2ccc(-c3nc4cnc(N[C@@H]5CNC[C@@H](F)C5)nc4n(C(C)C)c3=O)cc2F)c(C#N)c1  0.09 nM
4. CC(C)n1c(=O)c(-c2cc(F)c(NS(=O)(=O)CC3(C(F)(F)F)CC3)c(F)c2)nc2cnc(N[C@H]3CC[C@H](N(C)C)CC3)nc21  0.1 nM
5. CC(C)n1c(=O)c(-c2ccc(NS(=O)(=O)Cc3ccc(C#N)cc3)c(F)c2)nc2cnc(N[C@@H]3CNC[C@@H](F)C3)nc21  0.1 nM
6. COc1cccc(CS(=O)(=O)Nc2c(F)cc(-c3cc4cnc(N[C@@H]5CNC[C@@H](F)C5)nc4n(C(C)C)c3=O)c(F)c2F)c1  0.11 nM
